Patent publication US9034439B2, “Synthesis and applications of soluble pentacene precursors and related compounds” (Academia Sinica, priority 2008, dated 2015)
In brackets after ≈: the same amount, converted by molar mass. Entries after “also recorded” stand apart in the source; their conditions may differ. Like-named read-outs stand apart in the source and are kept apart here.

How the values were obtained:
[1] = Thermal fragmentation / decomposition (thermogravimetric analysis, heating); type: physicochemical; details: for thermal conversion of spin-cast film to pentacene: heating amorphous thin films cast from toluene
Method: FIG. 2 presents thermogravimetric analysis curves for compounds 1 (blue) and 2 (red) at 10° C./min heating rate, assessing the carbon monoxide (CO) expulsion reaction, in which the carbonyl bridge is released from the precursor for conversion to pentacene.
Melting points were taken on a Fargo MP-2D melting-point apparatus and were not corrected. UV spectra were recorded on a Hewlett-Packard 8453 spectrophotometer. Infrared spectra were measured on a Perkin-Elmer L118-F000 FT-IR spectrometer as either thin film or solid dispersion in KBr. Nuclear magnetic resonance spectra were recorded on Bruker AC300 and AV500 super-conducting FT NMR spectrometers with all chemical shifts reported in ppm from tetramethylsilane as an internal standard. Mass spectra were obtained on a Joel JMS 700 double focusing spectrometer. Elemental analyses were performed on a Perkin-Elmer 2400 elemental analyzer. Thermal gravimetric analyses were measured on a Perkin-Elmer Pyris 1 thermogravimetric analyzer. Differential scanning calorimetry was done on a Perkin-Elmer DCS-7 instrument. Column chromatography was carried out using 230-400 mesh silica gel.

[2] = organic solvents; cited from earlier work
[3] = Solubility in organic solvents; type: physicochemical; details: for solubility (comparison in words): organic solvents
[4] = heating; earlier reports; cited from earlier work
[5] = Stability on storage / at ambient conditions; type: physicochemical
[6] = organic solvent or mixture, dichloromethane (DCM) and tetrahydrofuran (THF), read-out: solubility
[7] = toluene, solutions for spin-casting

C1=C[C@@H]2c3cc4cc5cc6c(cc5cc4cc3[C@@H]1[C@]21OCCO1)[C@H]1C=C[C@@H]6[C@]12OCCO2 [Compound 16]
fragmentation / dissociation temperature of ethylene ketal (CO2 and ethylene released) ([1]; TGA): about 225 °C

c1csc(-c2ccc3cc4cc(-c5cccs5)ccc4cc3c2)c1 [Compound 35]
solubility [2]: undesirably low solubility

C(=C\c1ccc2cc3cc(/C=C/c4ccccc4)ccc3cc2c1)/c1ccccc1 [Compound 38]
solubility [2]: undesirably low solubility

O=C1[C@H]2c3cc4ccccc4cc3[C@H]1c1cc3ccccc3cc12 [Compound 1, reference compound]
solubility [3, 6]: ~700 µg/mL (≈ 2280 µM)
temperature of CO extrusion to pentacene [4]: 150 °C
temperature at which CO expulsion / decomposition starts ([1]; TGA, 10° C./min heating rate): 150 °C

O=C1[C@@H]2C=C[C@@H]1c1cc3cc4cc5ccccc5cc4cc3cc12 [Compound 11]
stability (in words) [5]: relatively low

COC1(OC)C2C=CC1c1cc3cc4cc5c(cc4cc3cc12)C1C=CC5C1(OC)OC [Compound 25]
solubility [3, 7]: good solubility
decomposition temperature ([1]; anti isomer): 288 °C
thermal conversion of spin-cast film to pentacene [1]: did not yield either pentacene or 1,2,3,4,8,9,10,11-octachloropentacene
decomposition temperature ([1]; syn isomer): 252 °C

c1ccc2cc3cc4cc5ccccc5cc4cc3cc2c1 [pentacene]
temperature up to which stable ([1]; pentacene produced from compound 2, TGA): 300 °C

O=C1C2C=CC1c1cc3c(cc12)[C@H]1C(=O)[C@H]3c2cc3c(cc21)C1C=C[C@H]3C1=O [Compound 14]
stability (in words) [5]: relatively low

O=C1[C@@H]2c3ccccc3[C@@H]1c1cc3cc4ccccc4cc3cc12 [Compound 2]
solubility [3, 6]: ~700 µg/mL (≈ 2280 µM)
solubility (comparison in words) [3]: better than compound 1
temperature of CO extrusion to pentacene [4]: 128 °C
stability (in words) [5]: stable at ambient temperature
weight loss ([1]; thermogravimetric curve, corresponds to a CO unit): 10%

COC1(OC)C2(Cl)C(Cl)=C(Cl)C1(Cl)c1cc3cc4cc5c(cc4cc3cc12)C1(Cl)C(Cl)=C(Cl)C5(Cl)C1(OC)OC [Compound 23]
solubility [3, 7]: good solubility
decomposition temperature ([1]; anti isomer): 297 °C
thermal conversion of spin-cast film to pentacene [1]: did not yield either pentacene or 1,2,3,4,8,9,10,11-octachloropentacene
decomposition temperature ([1]; syn isomer): 271 °C

O=C1C2C=CC1c1cc3cc4cc5c(cc4cc3cc12)C1C=CC5C1=O [Compound 13]
stability (in words) [5]: cannot be isolated at ambient temperature; also recorded: relatively low

O=C1C2c3ccccc3[C@@H]1c1cc3c(cc12)[C@@H]1C(=O)[C@@H]3c2ccccc21 [Compound 12]
solubility (comparison in words) [3]: higher solubility than either compound 1 or 2
stability (in words) [5]: stable at low temperature for a long period of time; also recorded: can be kept at −10 °C for an extended period of time

c1ccc(-c2ccc3cc4cc(-c5ccccc5)ccc4cc3c2)cc1 [Compound 37]
solubility [2]: undesirably low solubility

O=C1C2C=CC1c1cc3cc4cc5c(cc4cc3cc12)C1C=CC5C1=O [Compound 13A]
stability (in words) [5]: decomposed readily at ambient conditions; also recorded: not stable enough to sustain at ambient conditions

C(=C\c1cccs1)/c1ccc2cc3cc(/C=C/c4cccs4)ccc3cc2c1 [Compound 36]
solubility [2]: undesirably low solubility
